Measurements reported in US4156724A, “N-acylamino-alpha-arylacetamido cephalosporins and antibacterial compositions and methods containing them” (Sumitomo Chemical Company, Limited, priority 1974, dated 1979).
Values after ≈ are worked out from the molar mass of the structure shown.

Legend:
Type in all cases: cell-based
[1] = test system: Staphylococcus aureus 209 P; assay: Minimum Inhibitory Concentration, Staphylococcus aureus 209 P; details: Staphylococcus aureus 209 P; read-out: Minimum Inhibitory Concentration
Experimental: (§1) anti-microbial activity tests were carried out on the compounds obtained in the Examples.

Serratia No. 72 = assay: Minimum Inhibitory Concentration, Serratia No. 72
Experimental: as §1

[2] = test system: Klebsiella pneumoniae 602; assay: Minimum Inhibitory Concentration, Klebsiella pneumoniae 602; details: Klebsiella pneumoniae, 602, Klebsiella pneumoniae 602; read-out: Minimum Inhibitory Concentration
Experimental: as §1

[3] = test system: Enterobacter aerogeneus No. 75; assay: Minimum Inhibitory Concentration, Enterobacter aerogeneus No. 75; details: Enterobacter aerogeneus No. 75; read-out: Minimum Inhibitory Concentration
Experimental: as §1

[4] = test system: Pseudomonas aeruginosa 104; assay: Minimum Inhibitory Concentration, Pseudomonas aeruginosa 104; details: Pseudomonas aeruginosa 104; read-out: Minimum Inhibitory Concentration
Experimental: as §1

Proteus vulgaris HX 19 = assay: Minimum Inhibitory Concentration, Proteus vulgaris HX 19; details: HX19; Proteus vulgaris HX 19; read-out: Minimum Inhibitory Concentration
Experimental: as §1

[5] = test system: Staphylococcus aureus FS 289; assay: Minimum Inhibitory Concentration, Staphylococcus aureus FS 289; details: FS289; Staphylococcus aureus FS 289, strain resistant to penicillin; read-out: Minimum Inhibitory Concentration
Experimental: as §1
*Staphylococcus aureus FS 289: strain resistant to penicillin

Escherichia coli NIHJ = assay: Minimum Inhibitory Concentration, Escherichia coli NIHJ; details: Escherichia coli NIHJ; read-out: Minimum Inhibitory Concentration
Experimental: as §1

Compound	MIC [1] [µg/mL]	MIC (Serratia No. 72) [µg/mL]	MIC [2] [µg/mL]	MIC [3] [µg/mL]	MIC [4] [µg/mL]	MIC (Proteus vulgaris HX 19) [µg/mL]	MIC [5] [µg/mL]	MIC (Escherichia coli NIHJ) [µg/mL]
Cn1nnnc1SCC1=C(C(=O)O)N2C(=O)C(NC(=O)C(NC(=O)c3cnc4cncnc4c3O)c3cccc(N)c3)C2SC1 (centres unmarked) [Example 72]	0.78 (≈ 1.2 µM)	50 (≈ 77 µM)	6.25 (≈ 9.62 µM)	12.5 (≈ 19.2 µM)	6.25 (≈ 9.62 µM)	0.2 (≈ 0.308 µM)	6.25 (≈ 9.62 µM)	3.13 (≈ 4.82 µM)
CSc1ccc2ncc(C(=O)N[C@@H](C(=O)NC3C(=O)N4C(C(=O)O)=C(CSc5nnc(CN)s5)CSC34)c3ccc(O)cc3)c(O)c2n1 (some centres unmarked) [Example 153]	0.78 (≈ 1.07 µM)	25 (≈ 34.4 µM)	3.13 (≈ 4.31 µM)	6.25 (≈ 8.6 µM)	6.25 (≈ 8.6 µM)	0.39 (≈ 0.537 µM)	6.25 (≈ 8.6 µM)	3.13 (≈ 4.31 µM)
Cn1nnnc1SCC1=C(C(=O)O)N2C(=O)C(NC(=O)C(NC(=O)c3cnc4ccc(O)nc4c3O)c3cccc(N)c3)C2SC1 (centres unmarked) [Example 77]	0.78 (≈ 1.17 µM)	12.5 (≈ 18.8 µM)	3.13 (≈ 4.71 µM)	3.13 (≈ 4.71 µM)	3.13 (≈ 4.71 µM)	0.1 (≈ 0.15 µM)	6.25 (≈ 9.4 µM)	3.13 (≈ 4.71 µM)
Cn1nnnc1SCC1=C(C(=O)O)N2C(=O)C(NC(=O)C(NC(=O)c3cnc4cccnc4c3O)c3cccc(O)c3)C2SC1 (centres unmarked) [Example 180]	0.78 (≈ 1.2 µM)	12.5 (≈ 19.2 µM)	1.56 (≈ 2.4 µM)	3.13 (≈ 4.82 µM)	3.13 (≈ 4.82 µM)	0.1 (≈ 0.154 µM)	6.25 (≈ 9.62 µM)	3.13 (≈ 4.82 µM)
CC(=O)OCC1=C(C(=O)O)N2C(=O)[C@@H](NC(=O)[C@H](NC(=O)c3nnc4ccccc4c3O)c3ccc(NC(N)=O)cc3)[C@H]2SC1 [Example 9]	0.78 (≈ 1.23 µM)	50 (≈ 78.7 µM)	12.5 (≈ 19.7 µM)	12.5 (≈ 19.7 µM)	12.5 (≈ 19.7 µM)	0.39 (≈ 0.614 µM)	6.25 (≈ 9.83 µM)	12.5 (≈ 19.7 µM)
CC(=O)OCC1=C(C(=O)O)N2C(=O)C(NC(=O)[C@H](NC(=O)c3cnc4cccnc4c3O)c3ccc(O)c(Cl)c3)C2SC1 (some centres unmarked) [Example 122]	0.78 (≈ 1.24 µM)	50 (≈ 79.6 µM)	3.13 (≈ 4.98 µM)	6.25 (≈ 9.95 µM)	6.25 (≈ 9.95 µM)	0.39 (≈ 0.621 µM)	6.25 (≈ 9.95 µM)	3.13 (≈ 4.98 µM)

Further compounds by falling MIC [1], results first:

MIC [1] [µg/mL]	MIC (Serratia No. 72) [µg/mL]	MIC [2] [µg/mL]	MIC [3] [µg/mL]	MIC [4] [µg/mL]	MIC (Proteus vulgaris HX 19) [µg/mL]	MIC [5] [µg/mL]	MIC (Escherichia coli NIHJ) [µg/mL]	Compound
0.78 (≈ 1.21 µM)	50 (≈ 77.3 µM)	12.5 (≈ 19.3 µM)	12.5 (≈ 19.3 µM)	6.25 (≈ 9.66 µM)	0.78 (≈ 1.21 µM)	6.25 (≈ 9.66 µM)	6.25 (≈ 9.66 µM)	O=C(O)C1=C(CSc2nnc(CO)s2)CSC2C(NC(=O)C(NC(=O)c3cnccc3O)c3ccc(O)c(O)c3)C(=O)N12 (centres unmarked) [Example 184]
0.78 (≈ 1.4 µM)	> 200	12.5 (≈ 22.4 µM)	25 (≈ 44.8 µM)	12.5 (≈ 22.4 µM)	0.39 (≈ 0.7 µM)	6.25 (≈ 11.2 µM)	25 (≈ 44.8 µM)	CC(=O)OCC1=C(C(=O)O)N2C(=O)C(NC(=O)C(NC(=O)c3ccnnc3O)c3ccc(CO)cc3)C2SC1 (centres unmarked) [Example 92]
0.78 (≈ 1.4 µM)	> 200	25 (≈ 44.8 µM)	25 (≈ 44.8 µM)	12.5 (≈ 22.4 µM)	0.78 (≈ 1.4 µM)	3.13 (≈ 5.6 µM)	12.5 (≈ 22.4 µM)	CC(=O)OCC1=C(C(=O)O)N2C(=O)C(NC(=O)C(NC(=O)c3cnccc3O)c3ccc(O)c(O)c3)C2SC1 (centres unmarked) [Example 182]
0.39 (≈ 0.72 µM)	> 200	12.5 (≈ 23.1 µM)	25 (≈ 46.2 µM)	6.25 (≈ 11.5 µM)	0.2 (≈ 0.369 µM)	3.13 (≈ 5.78 µM)	12.5 (≈ 23.1 µM)	CC(=O)OCC1=C(C(=O)O)N2C(=O)C(NC(=O)[C@H](NC(=O)c3cnccc3O)c3cccc(N)c3)C2SC1 (stereo partly drawn) [Example 51, 7-[D-α-(4-Hydroxypyridine-3-carbonamide)-α -m-aminophenylacetamido]cephalosporanic acid]
